Measurements as given in the NIST ThermoML archive (doi:10.1021/je400821q).
Numbers after ± are expanded uncertainties.

Assay: osmotic coefficient (dimensionless); mn = molality of the nth substance listed, in mol/kg
Details: 308.15 K, Liquid, Osmomat K-7000

CCCC[N+](CCCC)(CCCC)CCCC.[Br-] [tetrabutylammonium bromide] + O
Details | osmotic coefficient
m1 = 0.00627 | 0.9763 ± 0.0013
m1 = 0.0125 | 0.9517 ± 0.002
m1 = 0.02562 | 0.9279 ± 0.0028
m1 = 0.03159 | 0.9191 ± 0.0031
m1 = 0.03774 | 0.9126 ± 0.0034
m1 = 0.04597 | 0.9006 ± 0.0039
m1 = 0.06502 | 0.8805 ± 0.0046
m1 = 0.07496 | 0.8725 ± 0.0049
m1 = 0.113 | 0.8403 ± 0.0062
m1 = 0.1459 | 0.8228 ± 0.0069
m1 = 0.1775 | 0.8131 ± 0.0072
m1 = 0.2126 | 0.8046 ± 0.0076
m1 = 0.2558 | 0.794 ± 0.008
m1 = 0.3305 | 0.785 ± 0.0083

CC[N+](CC)(CC)CC.[Br-] [tetraethylammonium bromide] + O
Details | osmotic coefficient
m1 = 0.00966 | 0.9933 ± 0.001
m1 = 0.01943 | 0.9737 ± 0.0014
m1 = 0.03868 | 0.9492 ± 0.0021
m1 = 0.0491 | 0.9327 ± 0.0026
m1 = 0.05837 | 0.9256 ± 0.0029
m1 = 0.07077 | 0.916 ± 0.0033
m1 = 0.09678 | 0.8994 ± 0.0039
m1 = 0.1197 | 0.8851 ± 0.0045
m1 = 0.1561 | 0.869 ± 0.0051
m1 = 0.2146 | 0.85 ± 0.0058
m1 = 0.2799 | 0.8376 ± 0.0063
m1 = 0.3398 | 0.8275 ± 0.0067

C[N+](C)(C)C.[Br-] [tetramethylammonium bromide] + O
Details | osmotic coefficient
m1 = 0.01285 | 0.9931 ± 0.001
m1 = 0.02557 | 0.9742 ± 0.0014
m1 = 0.03787 | 0.9583 ± 0.0018
m1 = 0.0549 | 0.948 ± 0.0021
m1 = 0.06504 | 0.94 ± 0.0023
m1 = 0.07726 | 0.9311 ± 0.0027
m1 = 0.0956 | 0.9195 ± 0.0031
m1 = 0.1326 | 0.8936 ± 0.0041
m1 = 0.1678 | 0.8796 ± 0.0047
m1 = 0.203 | 0.8696 ± 0.0051
m1 = 0.2383 | 0.8623 ± 0.0053
m1 = 0.3083 | 0.8489 ± 0.0059

C[N+](C)(C)C.[Cl-] [tetramethylammonium chloride] + O
Details | osmotic coefficient
m1 = 0.01861 | 0.9937 ± 0.001
m1 = 0.03679 | 0.9747 ± 0.0013
m1 = 0.05507 | 0.958 ± 0.0018
m1 = 0.07403 | 0.9487 ± 0.0021
m1 = 0.09359 | 0.9393 ± 0.0024
m1 = 0.1112 | 0.9297 ± 0.0027
m1 = 0.1397 | 0.9173 ± 0.0032
m1 = 0.1877 | 0.8997 ± 0.0039
m1 = 0.2352 | 0.8878 ± 0.0043
m1 = 0.284 | 0.8757 ± 0.0048
m1 = 0.333 | 0.8675 ± 0.0051

C[N+](C)(C)C.[I-] [tetramethylammonium iodide] + O
Details | osmotic coefficient
m1 = 0.01012 | 0.9766 ± 0.0013
m1 = 0.02006 | 0.9573 ± 0.0018
m1 = 0.0301 | 0.9365 ± 0.0025
m1 = 0.04063 | 0.9245 ± 0.0029
m1 = 0.04966 | 0.9108 ± 0.0035
m1 = 0.05912 | 0.8995 ± 0.0039
m1 = 0.07116 | 0.883 ± 0.0045
m1 = 0.1026 | 0.8569 ± 0.0055
m1 = 0.1286 | 0.8396 ± 0.0062
m1 = 0.1527 | 0.8277 ± 0.0067
m1 = 0.1802 | 0.8188 ± 0.007
